This is an account of results in ChEMBL document CHEMBL4834490, “Novel Bromodomain Inhibitors for Treating Cancer, Fibrosis, and Inflammatory Disorders” (ACS Med Chem Lett, 2021).

pIC50, pKd: −log10 of the molar value. Bounds are passed on as bounds.

Experiment [1] concerns the target T1, Bromodomain-containing protein 4 (Homo sapiens, UniProt O60885). Nature of the experiment: Binding affinity to DNA-tagged human BRD4 (BD1,2) isoform long expressed in Escherichia coli BL21 incubated for 1 hr by competitive ligand binding BROMOscan assay.
Experiment [2] deals with T1, Bromodomain-containing protein 4. Nature of the experiment: Inhibition of binding of N-terminal His-tagged human full length recombinant BRD4 (2 to 1362 residues) expressed in baculovirus-infected Sf9 cells with acetylated histone H4 peptide (1 to 21) preincubated for 30 mins followed by H4 ligand addition and measured after 30 mins AlphaScreen assay. On the technique in general: In Alpha technology, singlet oxygen from a donor bead excites a nearby acceptor bead.

By pKd is commonly meant the negative decadic logarithm of the Kd, by convention in mol/L. Higher therefore signals a low Kd. A word on the pIC50: it is −log10 of the IC50, conventionally taken in molar units. `Cc1cc(-c2ccc3nc(-c4cnn(CC(C)(C)O)c4)nc(N4CCOC[C@@H]4c4ccccc4)c3c2)cn(C)c1=O` gave a pKd in experiment [1] above 7.00. In experiment [2], the negative-log IC50 (pIC50) was above 7.00.
Consider `Cn1cc(-c2ccc3nc(-c4cnn(CC(C)(C)O)c4)nc(N4CCOC[C@@H]4c4ccccc4)c3c2)c2cc[nH]c2c1=O`, for which the pKd in experiment [1] is above 7.00. Moreover, the pIC50 in experiment [2] is above 7.00.
Compound `Cn1cc(-c2ccc3nc(-c4cnn(CC(C)(C)O)c4)nc(N4CCOC[C@@H]4C4CC4)c3c2)c2cc[nH]c2c1=O` gave a pKd in experiment [1] above 7.00. For the same compound, in experiment [2], the pIC50 was above 7.00.
`Cn1cc(-c2ccc3nc(-c4cnn(CC(C)(C)O)c4)nc(N4CCOC[C@@H]4c4ccc(F)cc4)c3c2)c2cc[nH]c2c1=O`: the pKd in experiment [1] is above 7.00. Further, in experiment [2], the pIC50 was above 7.00.
The compound `Cc1cc(-c2ccc3nc(-c4cnn(CC(C)(C)O)c4)nc(N4CCOC[C@@H]4c4ccc(F)cc4)c3c2)cn(C)c1=O` gave a pKd in experiment [1] above 7.00. Moreover, the pIC50 in experiment [2] was above 7.00.
Regarding `Cc1cc(-c2ccc3nc(-c4cnn(CC(C)(C)O)c4)nc(N4CCOC[C@@H]4C4CC4)c3c2)cn(C)c1=O`, the pKd in experiment [1] is above 7.00. The pIC50 in experiment [2] was 7.00.
